Columns and labels:
[1] = test system: whole dorsal root ganglion (DRG); test: neurite extension of whole dorsal root ganglion cultured on scaffolds; assay type: cell-based; settings: DRG on PLLA/PLLA scaffolds with 100 nM bolus of exogenous E2 at the beginning of culture
Description: To examine the bioactivity of E2 released during poly(pro-drug) material degradation and the effects of sustained E2 release on neurons, whole dorsal root ganglion (DRG) were cultured on poly(pro-drug) material films to examine the ability of the poly(pro-drug) material to promote neurite extension. To analyze material-derived neurite extension, DRG were cultured onto three types of scaffolds: 1) PLLA fibers electrospun onto a PLLA film (PLLA/PLLA), 2) PLLA fibers electrospun on to a PLLA film with a 100 nM bolus of exogenous E2 at the beginning of culture (PLLA/PLLA+Exo E2), and 3) PLLA fibers electrospun onto a poly(pro-drug) material film (PLLA/P1). […] PLLA fibers were used in this experiment to isolate the effects of E2 released the poly(pro-drug) material as the only factor influencing DRG neurite extension.

[2] = not told

Compound: C[C@]12CC[C@@H]3c4ccc(O)cc4CC[C@H]3[C@@H]1CC[C@@H]2O [E2, 17β-Estradiol]
- average neurite outgrowth from DRG [1]: 526.7±273.4 μm

Compound: poly(L-lactic acid) [PLLA]
- Young's modulus (Er) [2]: 5.38±1.06 GPa

— patent US11202834B2, “Synthesis and processing of poly(pro-drug) materials for extended drug release and uses thereof” (RENSSELAER POLYTECHNIC INSTITUTE, priority 2018, dated 2021)
